What was measured:
soybean = assay: Test B pre/postemergence soybean; format: in vivo, Glycine max
In short: (§1)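 Response is a visual 0-to-10 score relative to untreated plants, where 0 means no effect and 10 means complete control, taken twelve to sixteen days after application. Treatments went onto soil at planting and onto foliage of 1- to 4-leaf plants, using a surfactant-containing non-phytotoxic solvent.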

morningglory = assay: Test B pre/postemergence morningglory; format: in vivo, Ipomoea hederacea
In short: as §1

cocklebur = assay: Test B pre/postemergence cocklebur; format: in vivo, Xanthium strumarium
In short: as §1

pigweed = assay: Test B pre/postemergence pigweed; format: in vivo, Amaranthus retroflexus
In short: as §1

[1] = Postemergence, Rate 62 g/ha, scale 0 to 10, 0 is no effect, 10 is complete control
[2] = Postemergence, Rate 125 g/ha, scale of 0 to 10 where 0 is no effect and 10 is complete control
[3] = Postemergence, Rate 500 g/ha, scale of 0 to 10 where 0 is no effect and 10 is complete control
[4] = Preemergence, Rate 62 g/ha, scale 0 to 10 (0 no effect, 10 complete control)
[5] = Preemergence, Rate 125 g/ha, scale of 0 to 10 where 0 is no effect and 10 is complete control
[6] = Preemergence, Rate 500 g/ha, scale of 0 to 10 where 0 is no effect and 10 is complete control
[7] = Postemergence, Rate 250 g/ha, scale of 0 to 10, 0 is no effect, 10 is complete control
[8] = Preemergence, Rate 62 g/ha, scale of 0 to 10 where 0 is no effect and 10 is complete control
[9] = Preemergence, Rate 250 g/ha, scale 0 to 10 (0 no effect, 10 complete control)
[10] = Rate 500 g/ha, Postemergence, scale 0 to 10, 0 is no effect, 10 is complete control
[11] = Rate 1000 g/ha, Preemergence, scale 0 to 10 (0 no effect, 10 complete control)
[12] = Postemergence, Rate 1000 g/ha, scale 0 to 10 (0 no effect, 10 complete control)

Row | Compound | Plant response rating, Soybean (soybean; [1]) | Soybean plant response rating (soybean; [5]) | Plant response rating, Soybean (soybean; [6]) | Plant response rating, Morningglory (morningglory; [1]) | Morningglory plant response rating (morningglory; [7]) | Plant response rating, Morningglory (morningglory; [3]) | Morningglory plant response rating (morningglory; [5]) | Plant response rating, Morningglory (morningglory; [6]) | Plant response rating, Cocklebur (cocklebur; [1]) | Cocklebur plant response rating (cocklebur; [7]) | Plant response rating, Cocklebur (cocklebur; [3]) | Cocklebur plant response rating (cocklebur; [5]) | Plant response rating, Cocklebur (cocklebur; [6]) | Plant response rating, Redroot pigweed (pigweed; [1]) | Redroot pigweed plant response rating (pigweed; [7]) | Plant response rating, Redroot pigweed (pigweed; [6]) | Plant response rating, Soybean (soybean; [9]) | Plant response rating, Morningglory (morningglory; [9]) | Plant response rating, Cocklebur (cocklebur; [9]) | Redroot pigweed plant response rating (pigweed; [5]) | other results
1 | C#CC(C)n1c(=O)on(C(=O)N(c2ccccc2)C(C)C)c1=O (centres unmarked) [Compound 609] | 5 | 6 | 7 | 8 | 10 | 10 | 0 | 5 | 0 | 2 | 3 | 0 | 3 | 0 | 2 | 10 | – | – | – | – | Plant response rating, Soybean (soybean; [2]): 6; Plant response rating, Soybean (soybean; [3]): 7; Soybean plant response rating (soybean; [4]): 4; Plant response rating, Morningglory (morningglory; [2]): 10; Morningglory plant response rating (morningglory; [4]): 0; Plant response rating, Cocklebur (cocklebur; [2]): 1; Cocklebur plant response rating (cocklebur; [4]): 0; Cocklebur plant response rating (0 to 10 scale) (cocklebur; Preemergence, Rate 250 g/ha): 0; Plant response rating, Redroot pigweed (pigweed; [2]): 0; Plant response rating, Redroot pigweed (pigweed; [3]): 9; Redroot pigweed plant response rating (pigweed; [4]): 8
2 | CC(C)N(C(=O)n1oc(=O)n(CCC(=O)N(C)C)c1=O)c1ccc(F)cc1 [Compound 638] | 1 | 0 | 3 | 0 | 3 | 7 | 0 | 7 | 0 | 2 | 4 | 0 | 9 | 0 | 0 | 10 | 3 | 2 | 4 | 10 | Plant response rating, Soybean (soybean; [2]): 1; Soybean plant response rating (soybean; [7]): 3; Soybean plant response rating (soybean; [8]): 0; Plant response rating, Morningglory (morningglory; [2]): 2; Morningglory plant response rating (morningglory; [8]): 0; Plant response rating, Cocklebur (cocklebur; [2]): 0; Cocklebur plant response rating (cocklebur; [8]): 0; Plant response rating, Redroot pigweed (pigweed; [2]): 0; Redroot pigweed plant response rating (pigweed; [8]): 7; Plant response rating, Redroot pigweed (pigweed; [9]): 10
3 | CC(C)N(C(=O)n1oc(=O)n(CC(=O)C2CCC2)c1=O)c1ccc(F)cc1F [Compound 642] | 2 | 0 | 0 | 0 | 0 | 3 | 0 | 0 | 0 | 0 | 0 | 0 | 0 | 0 | 0 | 8 | 0 | 0 | 0 | 0 | Soybean plant response rating (soybean; [2]): 2; Soybean plant response rating (soybean; [7]): 2; Soybean plant response rating (soybean; [8]): 0; Morningglory plant response rating (morningglory; [2]): 0; Morningglory plant response rating (morningglory; [8]): 0; Cocklebur plant response rating (cocklebur; [2]): 0; Cocklebur plant response rating (cocklebur; [8]): 0; Redroot pigweed plant response rating (pigweed; [2]): 0; Redroot pigweed plant response rating (pigweed; [8]): 0; Plant response rating, Redroot pigweed (pigweed; [9]): 2
4 | COP(=O)(CCn1c(=O)on(C(=O)N(c2ccc(F)cc2)C(C)C)c1=O)OC [Compound 662] | – | 0 | 0 | – | 9 | – | 0 | 1 | – | 0 | – | 0 | 2 | – | – | 7 | 0 | 0 | 0 | 0 | Soybean plant response rating (soybean; [2]): 1; Soybean plant response rating (soybean; [10]): 2; Plant response rating, Soybean (soybean; [11]): 3; Morningglory plant response rating (morningglory; [2]): 7; Morningglory plant response rating (morningglory; [12]): 7; Morningglory plant response rating (morningglory; [10]): 7; Plant response rating, Morningglory (morningglory; [11]): 3; Cocklebur plant response rating (cocklebur; [2]): 0; Cocklebur plant response rating (cocklebur; [12]): 5; Cocklebur plant response rating (cocklebur; [10]): 0; Plant response rating, Cocklebur (cocklebur; [11]): 9; Redroot pigweed plant response rating (pigweed; [2]): 0; Redroot pigweed plant response rating (pigweed; [12]): 0; Plant response rating, Redroot pigweed (pigweed; [9]): 3; Redroot pigweed plant response rating (pigweed; [10]): 0; Plant response rating, Redroot pigweed (pigweed; [11]): 7

— patent publication US6737383B1, “Herbicidal oxadiazolidines” (priority 1999, dated 2004)
